In brackets after ≈: the same amount, converted by molar mass.

Among the data in US20240315992A1, “AMINOXY ACID-BASED ANTIBACTERIAL COMPOUNDS AND METHODS THEREOF” (The University of Hong Kong, priority 2023, published 2024) are MIC values, retold here.

In the experiment the test system is multidrug resistant Staphylococcus aureus Mu3. The experiment can be described thus: MIC by CLSI broth micro-dilution, MRSA Mu3. The format is cell-based. Particulars: MRSA, CLSI broth micro-dilution, CAMH, read-out: Minimum inhibitory concentration (μM) in MRSA Mu3. On the procedure:
Aminoxy acids were synthesized by the standard peptide coupling procedures. Minimum inhibitory concentration was determined using CLSI broth micro-dilution method in 96-wells microtitre plates. Minimum inhibitory concentration is defined as the lowest concentration of the compound that inhibits visible growth of the bacteria. All experiments were performed three times. 24 compounds including aminoxy acid monomers and dipeptides have been identified to show toxicity against multidrug resistant Staphylococcus aureus Mu3 and summarized in Table 1. The minimum inhibitory concentration of compound 8 and compound 35 on other gram-positive bacteria was also evaluated and summarized in Table 2. […] As shown in FIGS. 3A-3B there are no observable hemolysis for compound 8 and compound 35 towards human red blood cell.
Bacteria were streaked from the glycerol stock into BHI agar and were incubated overnight. Single colony was picked for the overnight culture in cation-adjusted Mueller Hinton broth (CAMH), LB or BHI. The overnight culture was sub-cultured and regrew to exponential phase for the experiment.
MIC was determined by CLSI broth micro-dilution method in 96-wells microtitre plates. For compounds dissolved in water, 100 μL of 2× testing concentration was added to the first well of each column, followed by two-fold serial dilution for successive wells with 50 μL medium. For chemical compounds dissolved in DMSO, the compounds were two-fold serial diluted by DMSO in a DMSO-compatible 96-well plate. 1 μL of compound in DMSO was transferred into 96-wells microtitre plate containing 50 μL medium to give 2× testing concentration. An overnight culture of bacteria was grown into exponential phase. The bacteria culture was diluted to 1×10^6 CFU/mL and 50 μL of diluted culture were added into each well. The test plates were kept in a 37° C. incubator overnight. Optical density was recorded by DTX 880 multimode detector (Beckman Coulter, California, US). MIC is defined as the lowest concentration of the compound that inhibits visible growth of bacteria. Biological replicates were performed. CAMH was used for bacteria culture and MIC test except S. pneumoniae, L. monocytogenes, E. faecalis and M. smegmatis for which BHI was used as culture medium
(In general: Broth dilution looks for growth in wells or tubes with falling amounts of substance.)

As for `CC(C)(C)OC(=O)[C@@H](COCc1ccccc1)ONC(=O)c1cc(C(F)(F)F)cc(C(F)(F)F)c1` [Compound 1], the MIC amounted to 12.5 µM (≈ 6.34 µg/mL).
Turning to `O=C(NO[C@H](COCc1ccccc1)C(=O)Nc1ccccc1)c1cc(C(F)(F)F)cc(C(F)(F)F)c1` [Compound 2], the MIC worked out at 6.25 µM (≈ 3.29 µg/mL).
Take `CC(C)C[C@@H](ONC(=O)c1cc(C(F)(F)F)cc(C(F)(F)F)c1)C(=O)Nc1ccccc1` [Compound 3]: the MIC is 3.13 µM (≈ 1.45 µg/mL).
Consider `CC(C)(C)OC(=O)[C@@H](COCc1ccccc1)ONC(=O)[C@@H](COCc1ccccc1)ONC(=O)c1cc(C(F)(F)F)cc(C(F)(F)F)c1` [Compound 4], for which the MIC was above 12.5 µM.
For `CC(C)C[C@H](ONC(=O)[C@@H](COCc1ccccc1)ONC(=O)c1cc(C(F)(F)F)cc(C(F)(F)F)c1)C(=O)OC(C)(C)C` [Compound 5] the value was above 12.5 µM; for `CC(C)C[C@H](ONC(=O)[C@H](COCc1ccccc1)ONC(=O)c1cc(C(F)(F)F)cc(C(F)(F)F)c1)C(=O)Nc1ccccc1` [Compound 6], 3.13 µM (≈ 2.05 µg/mL); for `CC(C)C[C@@H](ONC(=O)[C@H](COCc1ccccc1)ONC(=O)c1cc(C(F)(F)F)cc(C(F)(F)F)c1)C(=O)Nc1ccccc1` [Compound 7], 3.13 µM (≈ 2.05 µg/mL).
For the molecule `CC(C)C[C@@H](ONC(=O)[C@@H](COCc1ccccc1)ONC(=O)c1cc(C(F)(F)F)cc(C(F)(F)F)c1)C(=O)Nc1ccccc1` [Compound 9], the MIC was 3.13 µM (≈ 2.05 µg/mL).
For `O=C(NO[C@H](COCc1ccccc1)C(=O)NO[C@H](Cc1c[nH]c2ccccc12)C(=O)Nc1ccccc1)c1cc(C(F)(F)F)cc(C(F)(F)F)c1` [Compound 10] the value was 6.25 µM (≈ 4.55 µg/mL); for `O=C(NO[C@H](COCc1ccccc1)C(=O)NO[C@@H](Cc1ccccc1)C(=O)Nc1ccccc1)c1cc(C(F)(F)F)cc(C(F)(F)F)c1` [Compound 11], 3.13 µM (≈ 2.16 µg/mL).
For `O=C(NO[C@H](COCc1ccccc1)C(=O)NO[C@H](COCc1ccccc1)C(=O)Nc1ccccc1)c1cc(C(F)(F)F)cc(C(F)(F)F)c1` [Compound 12] the value was 3.13 µM (≈ 2.25 µg/mL).
For `CC(C)(C)OC[C@@H](ONC(=O)[C@@H](COCc1ccccc1)ONC(=O)c1cc(C(F)(F)F)cc(C(F)(F)F)c1)C(=O)Nc1ccccc1` [Compound 13] the value was 6.25 µM (≈ 4.29 µg/mL).
As for `CC(C)(C)OC(=O)C[C@@H](ONC(=O)[C@@H](COCc1ccccc1)ONC(=O)c1cc(C(F)(F)F)cc(C(F)(F)F)c1)C(=O)Nc1ccccc1` [Compound 14], the MIC is 3.13 µM (≈ 2.23 µg/mL).
Turning to `O=C(NO[C@H](COCc1ccccc1)C(=O)NO[C@H](CO)C(=O)Nc1ccccc1)c1cc(C(F)(F)F)cc(C(F)(F)F)c1` [Compound 15], the MIC was above 12.5 µM.
As for `O=C(CONC(=O)[C@@H](COCc1ccccc1)ONC(=O)c1cc(C(F)(F)F)cc(C(F)(F)F)c1)Nc1ccccc1` [Compound 16], the MIC was above 12.5 µM.
For `C[C@@H](ONC(=O)[C@@H](COCc1ccccc1)ONC(=O)c1cc(C(F)(F)F)cc(C(F)(F)F)c1)C(=O)Nc1ccccc1` [Compound 17] the value was above 12.5 µM; for `O=C(O)C[C@@H](ONC(=O)[C@@H](COCc1ccccc1)ONC(=O)c1cc(C(F)(F)F)cc(C(F)(F)F)c1)C(=O)Nc1ccccc1` [Compound 18], above 12.5 µM.
On to `CC(C)(C)OC(=O)NCCCC[C@@H](ONC(=O)[C@@H](COCc1ccccc1)ONC(=O)c1cc(C(F)(F)F)cc(C(F)(F)F)c1)C(=O)Nc1ccccc1` [Compound 19], for which the MIC stood at 12.5 µM (≈ 9.63 µg/mL).
On to `NCCCC[C@@H](ONC(=O)[C@@H](COCc1ccccc1)ONC(=O)c1cc(C(F)(F)F)cc(C(F)(F)F)c1)C(=O)Nc1ccccc1` [Compound 20], for which the MIC was above 12.5 µM.
As to `CC(C)C[C@H](ONC(=O)[C@@H](COCc1ccccc1)ONC(=O)c1cc(C(F)(F)F)cc(C(F)(F)F)c1)C(=O)Nc1nccs1` [Compound 21], the MIC is above 12.5 µM.
In the case of `CC(C)C[C@H](ONC(=O)[C@@H](COCc1ccccc1)ONC(=O)c1cc(C(F)(F)F)cc(C(F)(F)F)c1)C(=O)NC1CCCCC1` [Compound 22], the MIC is above 12.5 µM.
